Patent US7579006B2, “Method of treating immune pathologies with low dose estrogen” (Oregon Health and Science University, priority 2000, dated 2009)

Key:
[1] = test system: T cells from naïve BV8S2 transgenic female mice; assay: In vitro effect of 17β-estradiol on T cells from naïve BV8S2 transgenic female mice; assay type: cell-based
Method: Proliferation assay. Proliferation responses of splenic T cells were determined essentially as described in Example II, except that antigen was used at an optimal concentration of 50 μg/ml.
Measurement of cytokine secretion. Lymph nodes of naïve BV8S2 TCR transgenic females were suspended at 4×10^6 cells/ml in stimulation medium with antigen and with or without 2000 pg/ml of 17β-estradiol. Cell culture supernatants were recovered at 72 hours and frozen at −70 C until used. Measurement of cytokines was performed by ELISA essentially as described in Example II.
To evaluate 17β-estradiol effects on antigen specific T cells, splenocytes from naïve BV8S2 single transgenic female mice were stimulated with MBP-Ac1-11 peptide or BV8S2 protein in the presence or absence of a range of 17β-estradiol concentrations.

[2] = test system: Vβ8.1/8.2 TCR+ spleen cells; assay: Intracellular cytokine staining of MOG 35-55 stimulated spleen cells; assay type: in vivo, mice
Method: Intracellular staining for cytokines. Single cell suspensions from spleen were prepared from immunized mice and cultured at 10×10^6 cells/ml in stimulation media containing 50 μg/ml of MOG 35-55. The cells were stimulated for 24 hrs, the last 5 hrs in the presence of Brefeldin A. The cells were then stained with anti-Vβ8.1/8.2 TCR FITC for 30 min at 4° C. prior to fixation and permeabilization with cytofix/cytoperm solution (Pharmingen, Inc.). The cells were then stained with anti-cytokine antibodies labeled with phycoerythrin (anti-mouse IFN-γ, TNF-α, IL-4, IL-10, and IL-12 from Pharmingen Inc.) for 30 min at 4° C. The cells were washed twice in perm/wash buffer (Pharmingen, Inc.) and once in FACS staining buffer (PBS, 1% BSA, 0.05% NaN3) prior to two-color FACS analysis on a FACScan instrument (Beckton-Dickenson, Inc., Sunnyvale, Calif.) using Cell Quest software (Beckton-Dickenson, Inc.). For each experiment the cells were stained with isotype control antibodies to establish background staining and to set the quadrants prior to calculating the percent positive cells.
In order to determine whether estrogen treatment promotes a shift towards Th2 immunity, the frequency of both pro- and anti-inflammatory cytokine producing cells in untreated and E2 treated mice was assessed, using the intracellular cytokine staining technique. Spleen cells were prepared from untreated and E2 treated mice at the peak of EAE (day 12-16 post-immunization) and stimulated with MOG 35-55 for 24 hr, the last […] in the presence of Brefeldin A. The cells were stained with FITC labeled anti-Vβ8.1/8.2 TCR antibodies prior to fixation and permeabilization, and then were stained with the indicated phycoerythrin labeled anti-cytokine antibodies. Vβ8.1/8.2 TCR bearing T cells were focused on because they are thought to comprise a major population of the MOG-35-55 specific T cell responses in H-2b mice.

DLN cells = assay: PLP 139-151 induced cytokine production by DLN cells (ELISA); assay type: in vivo, mice; conditions: 48-72 hours after PLP 139-151 stimulation
Method: Cytokine detection by ELISA. DLN cells were cultured at 4×10^6/ml and stimulated with the appropriate antigen in 24 well culture plates. Cell culture supernatants were recovered between 48-72 hr and frozen at −70° C. until needed for the cytokine assay. Measurement of cytokines was performed by ELISA using cytokine specific capture and detection antibodies (Pharmingen). Standard curves for each assay were generated using recombinant mouse cytokines (Pharmingen), and the concentration of cytokines in the cell supernatants was determined by interpolation from the appropriate standard curve. IFN-γ, TNF-α and IL-12 were chosen as representative Th1 cytokines, while IL-4 and IL-10 were measured as representative Th2 cytokines.
To determine if low dose estrogen therapy altered cytokine secretion patterns, DLN cells were prepared from individual mice at the peak of clinical EAE and cytokine levels were measured 48-72 hours after in vitro stimulation with PLP 139-151. IFN-γ, IL-12, and TNF-α were used as representative Th1 cytokines while IL-4, and IL-10 were used as representative Th2 cytokines. […] Despite the lack of statistical significance, the trend towards higher Th1 and lower Th2 cytokines points towards a subtle shift in the Th1/Th2 balance. The shift can be seen more clearly when the cytokine response of each individual mouse is plotted as a ratio of IFN-γ to IL-10 (FIG. 5C). There was a marked decrease in the frequency of high Th1 responder mice in the E2 and E3 treated groups when compared to placebo animals that approached significance (p=0.09 for the 5.0 mg E3 treated mice). Additionally, no informative trends were detected in IL-4 secretion (FIG. 5D), and TNF-α secretion was very often below the limits of detection for the assay (<31.25 pg/ml). Modest changes in cytokine responses induced by low dose estrogen therapy were also observed in the B10.PL model and were consistent with the data described for the SJL model.

## C[C@]12CC[C@@H]3c4ccc(O)cc4CC[C@H]3[C@@H]1CC[C@@H]2O [17β-estradiol]
[1]; in vitro, 2,000 pg/ml, MBP-Ac1-11 stimulated LN cells
  IL-12 or IL-10 secretion: no effects
[1]; in vitro, 2,000 pg/ml, MBP-Ac1-11 stimulated LN cells, p<0.005
  reduction of secreted IFN-γ protein: 50%
[1]; in vitro, 15-2,000 pg/ml
  native T cell proliferation response to MBP-Ac1-11 peptide: no significant effect
  native proliferation response to BV8S2 protein: modest enhancing effect
[1]; in vitro, lower doses (150-400 pg/ml)
  IFN-γ or other cytokine secretion: no inhibitory effects
[2]; C57BL/6 mice, p=0.004
  frequency of TNF-α producing Vβ8.1/8.2 TCR+ cells: significantly diminished
[2]; IFN-γ knockout mice
  frequency of TNF-α producing Vβ8.1/8.2 TCR+ cells: no further reduction
[2]; IL-4 knockout mice, p=0.06
  frequency of TNF-α producing Vβ8.1/8.2 TCR+ cells: significantly diminished
[2]; IL-10 knockout mice, p=0.001
  frequency of TNF-α producing Vβ8.1/8.2 TCR+ cells: significantly diminished
[2]; trend, p>0.05
  frequency of IFN-γ producing cells: lower frequency
DLN cells
  IL-10 secretion by DLN cells: modest increase
  IL-12 secretion by DLN cells: small decrease
DLN cells; p>0.10
  secretion of IFN-γ by DLN cells: consistently lower
